Values of other authors in patent US9175008B1, “Prodrugs of anti-platelet agents” (CELLIX BIO PRIVATE LIMITED, priority 2014, dated 2015).

System: recurrent atherothrombotic events
Conditions: recurrent atherothrombotic events across a wide range of high-risk patients

CC(=O)Oc1ccccc1C(=O)O [aspirin]
relative risk reduction: approximately 25%
